Consider three compounds from patent US5264207A, “Products for cutaneous applications with cosmetic and/or therapeutic effects” (EXSYMOL S.A.M., priority 1989, dated 1993).

How the values of data set [1] were obtained: 100 g of an aqueous suspension of 5 g of nanospheres having a diameter of about 70 to 130 nm (average 100 nm) are prepared by the copolymerization of an emulsion of 4 moles of styrene and 1 mole of acrylic acid, according to the technique described in example 2. 0.126 g of theophylline, which binds to the acrylic acid groups of the copolymer by an electronic-type chemical interaction, is added to these 100 g.
A liquid product (a-b) composed of two sets of copolymer/active substance nanospheres is thus obtained:
The liquid (a-b) is submitted to tests on an experimental model, reproducing diffusion phenomena in the skin.
The proportions of each of the active substances which may have been in contact with the skin in 3 hours is thus determined.
Given below are the percentages of the initial amount of each of these active substances which, according to the tests mentioned hereinabove, may have been diffused into the skin from the liquid studied:
They thus contained no --COOH groups likely to react with the --NH groups of theophylline. […]
As above, the amount of active principal available to the skin in 3 hours was determined. […]
The proportion of theophylline which is available to the skin in 3 hours and in 5 hours is then determined from 100 g of an aqueous suspension of 5 g of nanosphere charged as described above. […]

Data set [2] in a line: time of release/action of active substances after application to the skin. The class given is in vivo. Conditions: for time of release on application to the skin: Example 4, product as it is or mixed with cosmetic cream, gel or lotion. As for the experimental part:
The microspheres are constituted by a copolymer of 2 moles of styrene with 2 moles of butadiene and 1 mole of 2-aminoethanol methacrylate. They are prepared in the known manner, in aqueous dispersion with Na dodecylsulfate as a surfactant and K persulfate as a catalyst. After polymerization, the microspheres are neutralized, purified by aqueous dialysis and passed over an ion-exchange resin.
0.09 g of pyrrolidone carboxylic acid, which binds to the methacrylate --NH2 group forming a covalent amide bond, is added to 100 ml of suspension of 4 g of these microspheres numbering […] (average size 96 nm). Another purification is then carried out and 6.1 g of dimethyl silanol hyaluronate, the same as in example 1, are added to the suspension and adsorbed.
The resulting suspension of 106.1 g thus contains 0.09 g of pyrrolidone carboxylic acid and 0.28 g of the Si contained in dimethyl silanol hyaluronate. Application to the skin of the product as it is, or mixed with a cosmetic cream, gel or lotion leads to release of the pyrrolidone compound in 2 to 5 hours and release of the hyaluronate compound in 10 to 17 hours. A synergetic effect of the two active substances is also observed for 2 to 5 hours, followed by a longer period of hyaluronate action only.
The microspheres prepared in the known manner, described at the beginning of example 4, consist of a copolymer of 4 moles of styrene with 1 mole of acrylic acid.
(A)-100 g of an aqueous suspension of 5 g of microspheres are reacted with 0.126 g of theophylline, which binds to the acryl groups.
(B)-The microspheres are then given functional groups using diamine hexamethylene, after which they are treated with a 40 g/kg elastin aqueous solution. 0.3 g of elastin polypeptides thus bind to the copolymer.
(C)-The product obtained is purified and made to adsorb Ruscus Aculeatus glucosides, from an aqueous extract of this plant (Ruscus 1=33).

Data set [3] in a line: adsorption (charging) of active substance onto copolymer microspheres/nanospheres. The class given is physicochemical. Conditions: 60% styrene / 40% methyl methacrylate copolymer, average 95 nm; room temperature, 48 hours.

For the compound `Cn1c(=O)c2[nH]cnc2n(C)c1=O` [theophylline], in data set [1], the “amount available to the skin, tempering ratio without : with nanospheres” value was 2.5 times and the “amount of active principal available to the skin in 3 hours” value turned out to be 20%. Also, in data set [2] (in vivo), the “time of action after application” value is 2 to 8 h.
Regarding `O=C1CC[C@@H](C(=O)O)N1` [pyrrolidone carboxylic acid], the “time of release on application to the skin” value in data set [2] was in the range of 2 to 5 h.
Take dimethylsilanediol hyaluronate: the “microspheres are charged with dimethylsilanediol hyaluronate” value in data set [3] stood at 30%. For the same compound, the “time of release on application to the skin” value in data set [2] was in the range of 10 to 17 h.
